Measured values reported in US20050123476A1 (priority 2001, published 2005).

How the values were obtained:
[1] = tested on: human cervix adenocarcinoma HeLa cells; assay type: cell-based
HeLa cells = assay type: cell-based, human
uPA = uPA (Homo sapiens, UniProt P00749); conditions: cited from earlier work
HT1080 cells = assay type: cell-based, human

## Aprotinin
[1]
  effect on killing of HeLa cells by PrAg-U2 plus FP59: protected
  effect on killing of HeLa cells by native PrAg plus FP59: had no effect

## tranexamic acid [tranexainic acid]
HeLa cells
  effect on activation of pro-uPA by HeLa cells: strongly inhibited
  effect on binding/processing (activation) of PrAg-U2 on the HeLa cell surface: strongly inhibited
  effect on processing/activation of native PrAg by cells: not

## PCPGRVVGG
uPA
  uPA:tPA selectivity: 3.0

## SGRSA
uPA
  cleavage by uPA, times more efficiently than the physiological cleavage site present in plasminogen: 1363 fold
  uPA:tPA selectivity: 20

## CNC(=O)[C@@H](NC(=O)[C@H](CC(C)C)[C@H](O)C(=O)NO)C(C)(C)C [BB-2516, Marimastat]
HT1080 cells
  protection of HT1080 cells against WT-PA plus FP59: did not protect
  protection of HT1080 cells against challenge with PA-L1 and PA-L2 plus FP59: conferred clear protection

## CNC(=O)[C@H](Cc1c[nH]c2ccccc12)NC(=O)[C@@H](CC(=O)NO)CC(C)C [GM6001]
HT1080 cells
  protection of HT1080 cells against WT-PA plus FP59: did not protect
  protection of HT1080 cells against challenge with PA-L1 and PA-L2 plus FP59: conferred clear protection

## PGSGKSA
uPA
  uPA:tPA selectivity: 121

## PQRGRSA
uPA
  uPA:tPA selectivity: 0.005

## PGSGRSA
uPA
  uPA:tPA selectivity: 20
